From the Kinase Knowledgebase extract (Sharma et al. 2016) come the findings set out here.

Where only a bound is given, the exact number is not on record here.

In general, IC50 refers to the concentration at which inhibition is half-maximal. A lower IC50 goes with greater potency in that assay. The term inhibition denotes the change of the read-out against control, counted positive when it falls. A lower inhibition goes with little suppression.

The target of one experiment is EGFR (human) (UniProt P00533). Conditions: nci-h1975.
EGFR (human), sequence (P00533 whole entry, looked up): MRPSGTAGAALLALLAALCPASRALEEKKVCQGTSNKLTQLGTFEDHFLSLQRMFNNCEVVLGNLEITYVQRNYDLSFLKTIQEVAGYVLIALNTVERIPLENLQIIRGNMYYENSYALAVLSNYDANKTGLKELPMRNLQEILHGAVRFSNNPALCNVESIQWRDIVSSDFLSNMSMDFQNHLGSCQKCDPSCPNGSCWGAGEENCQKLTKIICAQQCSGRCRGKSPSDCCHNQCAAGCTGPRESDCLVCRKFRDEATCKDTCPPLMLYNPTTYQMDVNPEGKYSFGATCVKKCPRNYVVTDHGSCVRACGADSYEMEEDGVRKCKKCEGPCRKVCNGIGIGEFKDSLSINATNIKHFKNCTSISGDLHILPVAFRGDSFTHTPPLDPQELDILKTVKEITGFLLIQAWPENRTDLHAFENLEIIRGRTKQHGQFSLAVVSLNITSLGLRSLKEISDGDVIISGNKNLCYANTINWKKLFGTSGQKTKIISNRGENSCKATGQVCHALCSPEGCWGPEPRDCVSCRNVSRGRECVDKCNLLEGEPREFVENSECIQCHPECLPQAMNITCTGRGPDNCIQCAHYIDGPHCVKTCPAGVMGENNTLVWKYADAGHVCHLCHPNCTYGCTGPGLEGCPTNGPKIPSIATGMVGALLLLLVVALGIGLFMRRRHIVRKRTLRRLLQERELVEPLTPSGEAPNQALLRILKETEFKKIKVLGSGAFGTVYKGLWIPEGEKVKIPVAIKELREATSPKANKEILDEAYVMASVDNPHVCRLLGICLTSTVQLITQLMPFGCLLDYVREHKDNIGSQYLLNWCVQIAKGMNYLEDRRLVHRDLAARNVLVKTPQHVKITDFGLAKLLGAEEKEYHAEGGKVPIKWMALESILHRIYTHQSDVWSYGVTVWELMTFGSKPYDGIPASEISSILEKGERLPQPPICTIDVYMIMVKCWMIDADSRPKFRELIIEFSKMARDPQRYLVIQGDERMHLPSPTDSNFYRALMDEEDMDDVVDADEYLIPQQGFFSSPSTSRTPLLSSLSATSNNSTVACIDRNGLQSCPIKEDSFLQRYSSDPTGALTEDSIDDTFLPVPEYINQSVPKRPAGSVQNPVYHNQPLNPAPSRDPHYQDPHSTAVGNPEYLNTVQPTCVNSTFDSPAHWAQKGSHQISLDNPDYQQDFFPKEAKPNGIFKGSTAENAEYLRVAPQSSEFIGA
Molecule `CC(Nc1ncnc2[nH]c(-c3ccc(O)cc3)cc12)c1ccccc1` (stereo not given) displayed an IC50 of 8 µM.

Still in this experiment, the particulars now being: nci-h1975, concentration not given here.
For the molecule `OCCC#Cc1nc(-c2ccc(F)cc2)c(-c2ccncc2)n1CCCc1ccccc1`, the inhibition was less than 25%.

Turning to `COc1cccc(-c2cc(=O)c3ccccc3o2)c1N`, the inhibition is less than 25%.

For the molecule `Cc1ccc(NC(=O)c2cccc(N(C)C)c2)cc1NC(=O)c1ccc(O)cc1`, the inhibition was less than 25%.

Turning to `CC(C)(C)c1cnc(CSc2cnc(NC(=O)C3CCNCC3)s2)o1`, the inhibition was found to be 63%.

Regarding `COc1cc2ncnc(Nc3ccc(OCc4ccccc4)cc3)c2cc1OC`, the inhibition is less than 25%.

Turning to `Cn1cc(C2=C(c3ccc(Cl)cc3Cl)C(=O)NC2=O)c2ccccc21`, the inhibition came out at 37%.

With `O=c1ncn2nc(Sc3ccc(F)cc3F)ccc2c1-c1c(Cl)cccc1Cl`, the inhibition is less than 25%.

As for `Cc1ccc(NC(=O)c2ccc(CN3CCN(C)CC3)cc2)cc1Nc1nccc(-c2cccnc2)n1`, the inhibition is less than 25%.

Consider `O=C1NC(=O)C(c2ccccc2[N+](=O)[O-])=C1Nc1ccc(O)c(Cl)c1`, for which the inhibition was less than 25%.

Molecule `O=C(Nc1cc(C(F)(F)F)cc(C(F)(F)F)c1)c1cc(Cl)ccc1O` returned an inhibition of 76%.

As for `Cc1cc(Nc2cc(N3CCN(C)CC3)nc(Sc3ccc(NC(=O)C4CC4)cc3)n2)[nH]n1`, the inhibition stood at 34%.

Take `Cc1cc(C)c(/C=C2\C(=O)Nc3ccc(Cl)cc32)[nH]1`: the inhibition was less than 25%.

For the molecule `CC(C)(C)n1nc(-c2cccc3ccccc23)c2c(N)ncnc21`, the inhibition came out at 60%.

On to `c1ccc(-c2n[nH]cc2-c2ccnc3ccccc23)nc1`, for which the inhibition was less than 25%.

Regarding `NC(=O)Nc1sc(-c2ccc(F)cc2)cc1C(N)=O`, the inhibition was 35%.

For the molecule `CC(C)(C)c1nc2c3ccc(F)cc3c3c(=O)[nH]ccc3c2[nH]1`, the inhibition is less than 25%.

`O=C1Nc2ccc(I)cc2/C1=C\c1cc(Br)c(O)c(Br)c1`: the inhibition is less than 25%.

As for `CC(C)[C@H](CO)Nc1nc(Nc2ccc(C(=O)O)c(Cl)c2)c2ncn(C(C)C)c2n1`, the inhibition was less than 25%.

Regarding `Cc1cc(Nc2ncc3cc(-c4c(Cl)cccc4Cl)c(=O)n(C)c3n2)ccc1F`, the inhibition amounted to 55%.
